According to US20220241306A1, “CHITIN ANALOGS FOR THE TREATMENT OF KIDNEY DISEASES” (AyuVis Research, Inc., priority 2021, published 2022):

Key:
[1] = system: glycerol-induced AKI; assay: Mouse model for acute kidney injury (glycerol-induced): serum creatinine, BUN, proteinuria; type: in vivo; details: for blood urea nitrogen (BUN) level in serum / serum creatinine level: glycerol IM, compound 2 (5 mg/kg) or compound 8 (2.5 mg/kg) IP at 1, 6 and 24 hrs post glycerol, vs glycerol controls
Source text: Mouse model for acute kidney injury. Eight to ten weeks old male C57 BL/6J mice (n=5-7 per group, male and female) were utilized to induce acute kidney injury. Animals were randomized before treatment. Littermates or co-housed animals were chosen for this study. The mice were kept without water but unlimited access to chow for −24 hrs. In first study, nine ml per kg body weight of 1:1 diluted glycerol was intramuscularly injected followed by intraperitoneal administration of either compound 2 (5 mg/kg) or compound 8 (2.5 mg/kg body weight) at 1, 6 and 24 hrs post glycerol dosing. In a second study, AVR-48 was injected either at 5.0 mg/kg/dose or 10 mg/kg/dose IP after 3 h of glycerol administration and was dosed 2/day for 3 days (total 7 doses) and survival was monitored till 8 days. Proteinuria was measured in urine at 24 hrs before sacrifice of the animals by an albustix proteinuria strip. The mice were sacrificed, and bloods were collected by heart puncture. Serum samples were stored at −80° C. for future use. Kidney, spleens, lungs and liver were immediately fixed in 10% buffered formalin for histopathological analysis. Part of the kidney were snap frozen for RNA isolation. To evaluate the effect of AVR-48 and AVR-123 on acute kidney injury, the inventors measured the vital parameters of kidney injury, i.e., levels of creatinine and blood urea nitrogen (BUN) in the serum of animals treated with AVR-48 and AVR-123 along with glycerol treated positive controls. PBS treated animals were considered as sham. […] N=4-7 mice. *p=0.02, **p=0.00′7, and ***p=0.0004, One-way ANOVA, Dunnett's multiple comparison test. […] N=4-7 mice, each sample run in duplicates. ****p<0.0001, One-way ANOVA, Dunnett's multiple comparison test.

[2] = system: TNF-α; assay: RT-PCR of kidney tissue, glycerol-treated mice: TNF-α; type: in vivo, mouse; details: whole kidney tissue, RT-PCR vs GAPDH
Source text: (§1) Mouse model for acute kidney injury. Eight to ten weeks old male C57 BL/6J mice (n=5-7 per group, male and female) were utilized to induce acute kidney injury. Animals were randomized before treatment. Littermates or co-housed animals were chosen for this study. The mice were kept without water but unlimited access to chow for −24 hrs. In first study, nine ml per kg body weight of 1:1 diluted glycerol was intramuscularly injected followed by intraperitoneal administration of either compound 2 (5 mg/kg) or compound 8 (2.5 mg/kg body weight) at 1, 6 and 24 hrs post glycerol dosing. In a second study, AVR-48 was injected either at 5.0 mg/kg/dose or 10 mg/kg/dose IP after 3 h of glycerol administration and was dosed 2/day for 3 days (total 7 doses) and survival was monitored till 8 days.
(§2) The mice were sacrificed, and bloods were collected by heart puncture. Serum samples were stored at −80° C. for future use. Kidney, spleens, lungs and liver were immediately fixed in 10% buffered formalin for histopathological analysis. Part of the kidney were snap frozen for RNA isolation.
(§3) RNA isolation and RT-PCR. RNA was isolated from snap-frozen kidney samples by using RNA plus micro kit (Qiagen) according to manufacturer's instruction. c-DNA were prepared by Quanta-Bio-C-DNA kit. […] The expression of various genes was analyzed in comparison to GAPDH. […]

[3] = system: NGAL; assay: RT-PCR of kidney cortical tissue, glycerol-treated mice: NGAL; type: in vivo, mouse; details: kidney cortical tissue (FIG. 7B); vs glycerol
Source text: as §1, §2, §3

[4] = system: IL-10; assay: RT-PCR of kidney tissue, glycerol-treated mice: IL-10; type: in vivo, mouse
Source text: as §1, §2
RNA isolation and RT-PCR. […] The expression of various genes was analyzed in comparison to GAPDH.
FIGS. 6A and 6B are graphs that show the level of the anti-inflammatory cytokine IL-10 in the whole kidney tissue (FIG. 6A) and in kidney cortex tissue (FIG. 6B) with or without AVR-48 treatment as determined by RT-PCR experiment. […]

[5] = system: mechanical ventilator induced kidney injury; assay: Preterm lamb model of mechanical ventilator induced kidney injury: renal cortical histology; type: in vivo; details: 3.0 mg/Kg twice daily IV during mechanical ventilation, vs vehicle (saline)
Procedure: (§4) A unique PT lamb model, developed by Dr. Albertine (University of Utah), was used to emulate the clinical setting for PT human infants with respiratory failure related to premature birth before the lungs are mature enough to support extra-uterine life.
(§5) A dose range-finding study was conducted with the goal of treating 2-3 PT lambs with either a vehicle control or AVR-48 (compound 8, 3mg/kg/dose) by twice daily intravenous infusions during 6 to 7 days of mechanical ventilation, followed by transition to noninvasive respiratory support (NIS) for 3 days, for a total of 10 days of management of these PT lambs. AVR-48 was not given during the period of noninvasive respiratory support to assess short-term persistence of effect of AVR-48. Detailed methods have been published previously by Reyburn et al. and Null et al (Reyburn, Li et al. 2008, Null, Alvord et al. 2014), relevant portions incorporated herein by reference. All protocols have been adhered to APS/NIH guidelines for animal research and have been approved by the Institution Animal Care and Use Committees (IACUC) at the University of Utah.
FIGS. 11A and 11B compare renal cortical histology from the preterm lamb treated with 3.0 mg/Kg of AVR-48 (FIG. 11A) versus the vehicle-treated lamb (saline; FIG. 11B). Renal cortical histology is normal in the 3.0 mg/Kg AVR-48-treated lamb. […]

[6] = system: cyclooxygenase-2 (Cox-2); assay: RT-PCR of whole kidney tissue, glycerol-treated mice: Cox-2 mRNA; type: in vivo, mouse; details: vs glycerol injection
Source text: as §1, §2
RNA isolation and RT-PCR. RNA was isolated from snap-frozen kidney samples by using RNA plus micro kit (Qiagen) according to manufacturer's instruction. c-DNA were prepared by Quanta-Bio-C-DNA kit. […] The expression of various genes was analyzed in comparison to GAPDH.

[7] = system: glycerol induced rhabdomyolysis model; assay: Survival in glycerol induced rhabdomyolysis model; type: in vivo, mouse; details: 10 mg/kg/dose IP from 3 h after glycerol, 2/day for 3 days; monitored till 8 days; vs glycerol+saline, p<0.05
Source text: as §1
FIG. 9 is a graph showing survival curve of the mouse in a glycerol induced rhabdomyolysis model when dosed after 3 h of glycerol administration.

[8] = system: hemeoxygenase-1 (OH-1); assay: RT-PCR of kidney cortical tissue, glycerol-treated mice: hemeoxygenase-1; type: in vivo, mouse; details: kidney cortical tissue (FIG. 7A); vs glycerol
Source text: as §1, §2, §3

[9] = system: mechanical ventilator induced kidney injury; assay: Preterm lamb model of mechanical ventilator induced kidney injury: BUN; type: in vivo; details: day 10, after 7 days of treatment on invasive mechanical ventilator
Procedure: as §4, §5
Fetal lamb is term lamb control. N=2-3, **p<0.01, *** student t test (2-tailed), Dunnett's multiple comparison test.

[10] = system: IL-1β; assay: RT-PCR of kidney tissue, glycerol-treated mice: IL-1β; type: in vivo, mouse; details: whole kidney tissue, RT-PCR vs GAPDH
Source text: as §1, §2, §3

[11] = system: glycerol induced damage of kidney tissues; assay: H/E staining of mouse whole kidney tissue after glycerol; type: in vivo; details: N=5
Source text: as §1, §2

Structure (SMILES) | blood urea nitrogen (BUN) level in serum [1] | serum creatinine level [1] | level of TNF-α in kidney tissue [2] | level of NGAL in kidney cortical tissue [3] | level of IL-10 in kidney cortex tissue ([4]; kidney cortex tissue, RT-PCR (FIG. 6B), vs glycerol treated group) | level of IL-10 in whole kidney tissue ([4]; whole kidney tissue, RT-PCR (FIG. 6A)) | total proteinuria level ([1]; urine at 24 hrs, albustix proteinuria strip, vs glycerol treated mice) | renal cortical histology [5] | Cox-2 mRNA level in whole kidney tissue [6] | survival [7] | level of hemeoxygenase-1 (OH-1) in kidney cortical tissue [8] | BUN at day 10 [9] | level of IL-1β in kidney tissue [10] | H/E staining of whole kidney tissue [11]
CC(=O)NC1[C@H](Oc2ccc(C(=O)N[C@@H]3OC(COC(C)=O)[C@@H](OC(C)=O)[C@H](OC(C)=O)C3NC(C)=O)cc2)OC(CO)[C@@H](O)[C@@H]1O (stereo partly shown) [AVR-123] | significantly reduced | significantly reduced | – | – | – | – | – | – | – | – | – | – | – | –
CC(=O)N[C@@H]1C(Oc2ccc([N+](=O)[O-])cc2)OC(CO)C(O)C1O (stereo partly shown) [AVR-48] | significantly reduced | significantly reduced | significantly decreased the level | decreased | decreased the level and brought it back close to normal | significantly high | decreased proteinuria levels | normal | decreased significantly | significant difference in survival | decreased the level significantly | decreased BUN | significantly decreased the level | significant protection of kidney tissues
